Source: ChEMBL document CHEMBL5321237 (Eur J Med Chem, 2023)
In brackets after ≈: the same amount, converted by molar mass.

Experiments:
[1] = target: Platelet-derived growth factor receptor alpha (Homo sapiens) (UniProt P16234); assay: Inhibition of human PDGFRalpha binding to streptavidin-coated magnetic beads immobilized biotinylated ligand at 500 nM incubated for 1 hr by qPCR analysis relative to control
[2] = target: T1, Macrophage colony-stimulating factor 1 receptor (Homo sapiens, UniProt P07333); assay: Binding affinity to autoinhibited form of CSF1R (unknown origin) assessed as dissociation constant incubated for 1 hr by qPCR based Hill equation analysis
T1 sequence (P07333 whole entry): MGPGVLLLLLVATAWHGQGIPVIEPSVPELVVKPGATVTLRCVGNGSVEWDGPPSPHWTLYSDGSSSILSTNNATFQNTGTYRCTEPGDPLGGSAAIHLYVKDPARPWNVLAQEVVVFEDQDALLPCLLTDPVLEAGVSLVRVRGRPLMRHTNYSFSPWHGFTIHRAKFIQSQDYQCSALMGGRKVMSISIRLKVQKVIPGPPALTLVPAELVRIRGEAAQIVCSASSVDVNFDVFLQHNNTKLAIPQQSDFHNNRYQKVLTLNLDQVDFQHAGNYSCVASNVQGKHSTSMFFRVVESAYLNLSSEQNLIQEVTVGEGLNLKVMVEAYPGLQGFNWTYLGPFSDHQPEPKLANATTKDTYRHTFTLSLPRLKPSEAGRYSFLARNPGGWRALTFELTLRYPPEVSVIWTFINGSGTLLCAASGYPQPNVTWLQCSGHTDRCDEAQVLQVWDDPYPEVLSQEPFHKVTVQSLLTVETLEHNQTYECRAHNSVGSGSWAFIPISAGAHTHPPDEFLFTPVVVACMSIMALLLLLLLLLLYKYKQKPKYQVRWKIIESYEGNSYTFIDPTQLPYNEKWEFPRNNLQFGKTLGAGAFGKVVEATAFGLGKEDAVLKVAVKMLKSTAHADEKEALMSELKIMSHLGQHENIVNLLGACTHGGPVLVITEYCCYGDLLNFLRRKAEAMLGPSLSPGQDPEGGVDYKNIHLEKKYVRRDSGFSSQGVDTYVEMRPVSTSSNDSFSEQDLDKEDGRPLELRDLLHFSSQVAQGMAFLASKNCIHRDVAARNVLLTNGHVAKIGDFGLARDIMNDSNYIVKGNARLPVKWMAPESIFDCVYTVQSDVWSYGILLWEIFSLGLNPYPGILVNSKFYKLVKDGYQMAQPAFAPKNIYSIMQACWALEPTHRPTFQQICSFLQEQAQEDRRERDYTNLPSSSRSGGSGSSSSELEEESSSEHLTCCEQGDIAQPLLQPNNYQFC

[3] = target: T2, Ephrin type-B receptor 6 (Homo sapiens) (UniProt O15197); assay: Competitive binding affinity to human EPHB6 at 500 nM incubated for 1 hr by qPCR analysis relative to control
T2 sequence (whole entry): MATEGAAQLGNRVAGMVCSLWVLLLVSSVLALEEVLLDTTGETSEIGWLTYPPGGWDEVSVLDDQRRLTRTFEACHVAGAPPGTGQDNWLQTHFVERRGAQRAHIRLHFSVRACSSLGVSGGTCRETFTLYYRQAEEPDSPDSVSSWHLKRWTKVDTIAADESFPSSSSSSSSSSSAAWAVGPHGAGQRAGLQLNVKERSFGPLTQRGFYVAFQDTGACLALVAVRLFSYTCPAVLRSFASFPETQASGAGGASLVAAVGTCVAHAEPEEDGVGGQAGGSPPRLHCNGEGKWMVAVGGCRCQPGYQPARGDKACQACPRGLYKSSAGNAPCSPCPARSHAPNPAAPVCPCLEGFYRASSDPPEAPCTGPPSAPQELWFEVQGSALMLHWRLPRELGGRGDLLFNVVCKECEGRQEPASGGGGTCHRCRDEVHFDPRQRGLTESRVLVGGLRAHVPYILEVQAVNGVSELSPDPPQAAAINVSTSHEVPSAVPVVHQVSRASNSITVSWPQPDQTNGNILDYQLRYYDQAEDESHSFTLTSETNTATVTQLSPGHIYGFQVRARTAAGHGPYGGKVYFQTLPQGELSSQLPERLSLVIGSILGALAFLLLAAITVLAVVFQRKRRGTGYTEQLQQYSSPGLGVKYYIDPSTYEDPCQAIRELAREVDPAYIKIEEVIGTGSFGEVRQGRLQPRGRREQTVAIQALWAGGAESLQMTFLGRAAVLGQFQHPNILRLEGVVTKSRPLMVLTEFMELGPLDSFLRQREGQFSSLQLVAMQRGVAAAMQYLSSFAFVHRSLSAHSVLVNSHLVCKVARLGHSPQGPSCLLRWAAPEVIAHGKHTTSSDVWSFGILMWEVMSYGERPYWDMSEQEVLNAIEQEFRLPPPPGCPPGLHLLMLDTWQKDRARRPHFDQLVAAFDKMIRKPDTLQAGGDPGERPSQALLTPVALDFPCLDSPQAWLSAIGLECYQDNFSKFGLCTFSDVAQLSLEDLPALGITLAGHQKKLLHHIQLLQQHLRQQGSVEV

[4] = Kinetic aqueous solubility of compound at pH 7.4 at 500 uM incubated for 90 mins by spectrophotometry analysis; assay type: physicochemical; conditions: buffer, read-out: Kinetic_solubility
[5] = Metabolic stability in mouse liver microsomes assessed as intrinsic clearance at 3 uM measured upto 50 mins by LC-MS analysis; assay type: ADME, Microsome
[6] = target: T1, Macrophage colony-stimulating factor 1 receptor; assay: Binding affinity to non-autoinhibited form of CSF1R (unknown origin) assessed as dissociation constant incubated for 1 hr by qPCR based Hill equation analysis
[7] = target: Platelet-derived growth factor receptor beta (Homo sapiens) (UniProt P09619); assay: Inhibition of human PDGFRbeta binding to streptavidin-coated magnetic beads immobilized biotinylated ligand at 500 nM incubated for 1 hr by qPCR analysis relative to control
Chain of Platelet-derived growth factor receptor beta (Homo sapiens) (P09619 whole entry): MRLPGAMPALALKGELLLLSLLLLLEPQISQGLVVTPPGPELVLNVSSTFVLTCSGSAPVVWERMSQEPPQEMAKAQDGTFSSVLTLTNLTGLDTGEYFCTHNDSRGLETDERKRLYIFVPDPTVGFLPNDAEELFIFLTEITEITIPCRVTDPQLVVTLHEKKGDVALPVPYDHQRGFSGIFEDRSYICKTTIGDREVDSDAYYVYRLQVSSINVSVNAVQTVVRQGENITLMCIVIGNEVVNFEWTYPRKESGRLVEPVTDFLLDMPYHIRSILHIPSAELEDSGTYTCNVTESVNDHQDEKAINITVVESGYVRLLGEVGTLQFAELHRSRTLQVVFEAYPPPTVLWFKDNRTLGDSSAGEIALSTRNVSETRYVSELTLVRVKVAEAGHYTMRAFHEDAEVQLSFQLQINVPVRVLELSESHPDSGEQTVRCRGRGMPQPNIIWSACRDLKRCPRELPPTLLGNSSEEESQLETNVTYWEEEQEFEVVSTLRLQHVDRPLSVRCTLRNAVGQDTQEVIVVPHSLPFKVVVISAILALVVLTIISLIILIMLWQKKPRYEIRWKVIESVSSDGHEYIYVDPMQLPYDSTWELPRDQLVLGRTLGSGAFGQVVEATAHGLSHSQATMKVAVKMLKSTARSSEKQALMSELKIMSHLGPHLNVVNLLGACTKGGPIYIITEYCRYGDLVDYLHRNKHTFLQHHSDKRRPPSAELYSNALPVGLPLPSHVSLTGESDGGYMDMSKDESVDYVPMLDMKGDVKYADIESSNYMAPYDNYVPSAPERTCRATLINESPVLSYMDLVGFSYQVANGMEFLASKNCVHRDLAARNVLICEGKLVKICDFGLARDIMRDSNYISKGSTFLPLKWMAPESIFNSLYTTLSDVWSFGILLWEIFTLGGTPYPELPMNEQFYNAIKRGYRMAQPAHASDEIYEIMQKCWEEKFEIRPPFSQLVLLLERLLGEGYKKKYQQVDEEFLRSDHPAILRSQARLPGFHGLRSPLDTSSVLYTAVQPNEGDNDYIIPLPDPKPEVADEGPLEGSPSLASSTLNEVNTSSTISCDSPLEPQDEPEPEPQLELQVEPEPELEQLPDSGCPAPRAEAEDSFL

[8] = target: Mast/stem cell growth factor receptor Kit (Homo sapiens) (UniProt P10721); assay: Inhibition of autoinhibited wild type human KIT binding to streptavidin-coated magnetic beads immobilized biotinylated ligand at 500 nM incubated for 1 hr by qPCR analysis relative to control
Chain of Mast/stem cell growth factor receptor Kit (Homo sapiens) (P10721 whole entry): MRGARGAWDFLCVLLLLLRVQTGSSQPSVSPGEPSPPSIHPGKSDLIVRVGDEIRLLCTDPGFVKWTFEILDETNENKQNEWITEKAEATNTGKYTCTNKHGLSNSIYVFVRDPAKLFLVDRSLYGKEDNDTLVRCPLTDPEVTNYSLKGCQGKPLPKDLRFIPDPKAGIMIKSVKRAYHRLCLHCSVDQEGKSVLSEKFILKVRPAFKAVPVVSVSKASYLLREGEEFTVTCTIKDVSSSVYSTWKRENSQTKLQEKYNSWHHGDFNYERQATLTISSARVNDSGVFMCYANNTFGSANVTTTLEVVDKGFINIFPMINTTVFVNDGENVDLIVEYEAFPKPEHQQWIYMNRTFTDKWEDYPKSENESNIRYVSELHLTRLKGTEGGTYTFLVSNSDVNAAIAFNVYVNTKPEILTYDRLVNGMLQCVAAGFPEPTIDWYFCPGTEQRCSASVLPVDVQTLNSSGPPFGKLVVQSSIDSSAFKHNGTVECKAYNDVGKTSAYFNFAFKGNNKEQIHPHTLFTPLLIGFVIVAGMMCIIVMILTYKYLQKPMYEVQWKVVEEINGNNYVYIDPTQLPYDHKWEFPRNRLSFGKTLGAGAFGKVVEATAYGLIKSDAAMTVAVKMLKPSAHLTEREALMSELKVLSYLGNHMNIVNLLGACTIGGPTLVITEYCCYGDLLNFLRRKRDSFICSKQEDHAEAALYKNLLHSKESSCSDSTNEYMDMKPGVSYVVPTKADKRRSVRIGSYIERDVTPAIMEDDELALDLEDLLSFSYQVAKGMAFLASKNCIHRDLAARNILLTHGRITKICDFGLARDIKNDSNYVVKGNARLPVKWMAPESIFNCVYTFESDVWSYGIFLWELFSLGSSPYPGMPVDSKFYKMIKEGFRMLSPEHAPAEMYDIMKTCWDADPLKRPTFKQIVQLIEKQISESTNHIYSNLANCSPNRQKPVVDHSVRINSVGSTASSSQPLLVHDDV

[9] = target: Receptor-type tyrosine-protein kinase FLT3 (Homo sapiens) (UniProt P36888); assay: Inhibition of autoinhibited human FLT3 binding to streptavidin-coated magnetic beads immobilized biotinylated ligand at 500 nM incubated for 1 hr by qPCR analysis relative to control
Chain of Receptor-type tyrosine-protein kinase FLT3 (Homo sapiens) (P36888 whole entry): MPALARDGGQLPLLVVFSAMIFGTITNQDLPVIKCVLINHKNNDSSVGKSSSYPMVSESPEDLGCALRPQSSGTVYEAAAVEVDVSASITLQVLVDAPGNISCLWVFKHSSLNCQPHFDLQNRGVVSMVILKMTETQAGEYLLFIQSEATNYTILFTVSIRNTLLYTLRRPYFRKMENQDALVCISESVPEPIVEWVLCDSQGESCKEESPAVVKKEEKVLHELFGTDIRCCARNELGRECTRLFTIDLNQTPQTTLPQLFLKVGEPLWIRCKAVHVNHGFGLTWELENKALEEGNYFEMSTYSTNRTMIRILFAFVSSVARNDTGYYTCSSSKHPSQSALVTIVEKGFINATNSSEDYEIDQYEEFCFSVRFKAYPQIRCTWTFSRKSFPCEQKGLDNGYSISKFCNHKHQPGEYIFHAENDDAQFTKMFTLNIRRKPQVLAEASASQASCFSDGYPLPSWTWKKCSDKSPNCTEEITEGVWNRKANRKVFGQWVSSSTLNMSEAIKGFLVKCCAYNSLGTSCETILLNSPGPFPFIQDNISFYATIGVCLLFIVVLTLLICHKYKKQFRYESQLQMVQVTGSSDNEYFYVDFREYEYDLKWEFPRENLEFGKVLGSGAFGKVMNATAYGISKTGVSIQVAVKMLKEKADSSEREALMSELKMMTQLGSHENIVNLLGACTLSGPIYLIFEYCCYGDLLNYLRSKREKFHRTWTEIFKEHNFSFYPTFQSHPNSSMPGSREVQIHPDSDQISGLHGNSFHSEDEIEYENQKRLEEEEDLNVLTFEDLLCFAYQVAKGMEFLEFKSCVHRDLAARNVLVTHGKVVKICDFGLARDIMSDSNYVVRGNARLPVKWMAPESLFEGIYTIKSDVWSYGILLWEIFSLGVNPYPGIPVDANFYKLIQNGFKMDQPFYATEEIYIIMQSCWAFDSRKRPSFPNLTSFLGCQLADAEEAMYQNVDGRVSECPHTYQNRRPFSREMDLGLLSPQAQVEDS

Q: What does the source list for `CN(CC1CCCC1)c1ncnc2[nH]c(-c3ccc(CO)cc3)nc12`?
A: inhibition [1]: 12%; Kd [2]: 17 nM; Activity [3]: 87%; solubility kinetic at […], 500 µM [4]: 3.5 µM (≈ 1.18 µg/mL); CLint [5]: 243 µL/min/mg; Kd [6]: 220 nM; inhibition [7]: 12%; inhibition [8]: 12%; inhibition [9]: 12%
